Where a name gives a salt, the structure may show the parent alone.
Biological target: T1, PDE10A (human) (Homo sapiens, UniProt Q9Y233)
T1 construct: purchased BPS Bioscience
Experiment: Measurement of PDE activity (HTRF cAMP kit), human PDE10A
Assay type: biochemical
Conditions: PDE enzymatic reaction, substrate 20 nM for PDE10, 60 minutes at 29 C
Procedure: The recombinant PDE proteins are used in in vitro enzymatic reaction for measurement of PDE activity. These recombinant proteins, including PDE10A (human, rat and mouse PDE10) and isoforms of PDEs 1, 3, 4, and 5, were purchased from commercial vendor BPS Bioscience. The enzymatic activity of PDEs was determined by cAMP measurement kit from CisBio (IBA) using HTRF technology.
The PDE enzymatic reaction was carried out in assay buffer (20 mM Tris-HCl pH7.5, 10 mM MgCl2, 0.1% bovine serum albumin) containing enzyme and substrate. The PDE enzymes concentration ranged from 10 pM-250 pM, depending on each enzyme's specific activity. The substrate cyclic nucleotide (cAMP or cGMP) concentration used in the assay was 20 nM for PDE10, and 100 nM for other PDEs. The inhibitory effect of compound was determined by incubating various concentration of inhibitor in the enzymatic assay. Typically, compound was serial diluted in DMSO then further diluted in assay buffer. Next, the compound at varying concentration was mixed with PDE enzyme. The reaction was initiated by addition of cyclic nucleotide substrate, and incubated for 60 minutes at 29 C. The reaction was stopped by addition of lysis buffer from assay kit. The cAMP-d2 and anti-cAMP cryptate in the lysis buffer detected the level of cAMP left from the PDE hydrolysis reaction. The PDE activity is reversely correlated with the amount of cAMP left in the reaction and can be converted to the percent activity of an uninhibited control (100%). Thus, IC50 value of inhibitor can be obtained by plotting inhibitor concentration against PDE activity at that concentration.

T1 sequence (Q9Y233 whole entry): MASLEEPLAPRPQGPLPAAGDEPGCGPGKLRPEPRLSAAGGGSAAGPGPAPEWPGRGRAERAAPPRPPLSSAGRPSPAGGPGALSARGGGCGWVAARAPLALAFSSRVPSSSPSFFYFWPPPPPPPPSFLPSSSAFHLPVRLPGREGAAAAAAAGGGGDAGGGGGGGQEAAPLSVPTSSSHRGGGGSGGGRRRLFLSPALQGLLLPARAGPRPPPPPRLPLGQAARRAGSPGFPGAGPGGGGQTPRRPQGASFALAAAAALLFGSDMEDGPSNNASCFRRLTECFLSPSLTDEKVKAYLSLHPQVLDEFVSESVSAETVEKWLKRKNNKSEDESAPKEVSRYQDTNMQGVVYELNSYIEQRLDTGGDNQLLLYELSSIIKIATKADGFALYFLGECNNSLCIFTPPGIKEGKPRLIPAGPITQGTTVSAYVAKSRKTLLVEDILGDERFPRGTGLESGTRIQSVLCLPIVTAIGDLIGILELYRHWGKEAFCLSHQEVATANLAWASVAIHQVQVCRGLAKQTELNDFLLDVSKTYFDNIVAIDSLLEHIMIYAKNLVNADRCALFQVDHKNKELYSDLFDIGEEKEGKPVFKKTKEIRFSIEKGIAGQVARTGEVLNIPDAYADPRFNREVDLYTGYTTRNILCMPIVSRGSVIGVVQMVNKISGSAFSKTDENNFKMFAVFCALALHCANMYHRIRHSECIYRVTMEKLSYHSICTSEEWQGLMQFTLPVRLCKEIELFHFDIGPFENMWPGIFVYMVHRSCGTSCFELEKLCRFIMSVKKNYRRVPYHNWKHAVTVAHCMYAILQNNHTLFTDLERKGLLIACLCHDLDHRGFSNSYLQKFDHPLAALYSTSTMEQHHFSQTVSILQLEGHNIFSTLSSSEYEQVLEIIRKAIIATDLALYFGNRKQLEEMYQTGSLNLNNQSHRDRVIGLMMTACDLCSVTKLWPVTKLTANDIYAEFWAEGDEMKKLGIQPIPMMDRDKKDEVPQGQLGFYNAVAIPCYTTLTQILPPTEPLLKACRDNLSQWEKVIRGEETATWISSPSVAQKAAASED

| IC50 [nM] | Structure (SMILES) |
| --- | --- |
| < 100 | O=C1c2c(-c3cccnc3)ccc(F)c2CN1CCc1ccc2ccccc2n1 [compound 438, 4-fluoro-7-(3-pyridyl)-2-[2-(2-quinolyl)ethyl]isoindolin-1-one] |
| < 100 | O=C1c2c(N3CCOCC3)ccc(F)c2CN1CCc1ccc2ccccc2n1 [compound 440, 4-Fluoro-7-morpholino-2-[2-(2-quinolyl)ethyl]isoindolin-1-one] |
| 100 to 200 | Cc1ccsc1-c1ccnc2c1C(=O)N(CCc1ccc3ccccc3n1)C2 [Example 336, 4-(3-Methyl-thiophen-2-yl)-6-(2-quinolin-2-yl-ethyl)-6,7-dihydro-pyrrolo[3,4-b]pyridin-5-one] |
| 200 to 500 | CN1CCC(N2CCN(c3cccc4c3C(=O)N(CCc3ccc5ccccc5n3)C4)CC2)CC1 [Example 105, 7-[4-(1-Methyl-piperidin-4-yl)-piperazin-1-yl]-2-(2-quinolin-2-yl-ethyl)-2,3-dihydro-isoindol-1-one] |
| < 100 | O=C1c2c(-c3ccncc3F)ccnc2CN1CCc1ccc2ccccc2n1 [compound 412, 4-(3-Fluoro-pyridin-4-yl)-6-(2-quinolin-2-yl-ethyl)-6,7-dihydro-pyrrolo[3,4-b]pyridin-5-one] |
| < 100 | O=C1c2c(cccc2-c2ccc3ncccc3c2)CN1CCc1ccc2ccccc2n1 [Example 75, 7-Quinolin-6-yl-2-(2-quinolin-2-yl-ethyl)-2,3-dihydro-isoindol-1-one] |
| < 100 | O=c1c2c(-c3ccncc3)cccc2on1CCc1ccc2ccccc2n1 [Example 18, 4-Pyridin-4-yl-2-(2-quinolin-2-yl-ethyl)-benzo[d]isoxazol-3-one] |
| 200 to 500 | O=C1c2c(cccc2-c2cc(F)ccc2F)CN1CCc1ccc2ccccc2n1 [Example 51, 7-(2,5-Difluoro-phenyl)-2-(2-quinolin-2-yl-ethyl)-2,3-dihydro-isoindol-1-one] |
| < 100 | O=C1c2c(-c3ccc(F)cc3)ccc(F)c2CN1CCc1ccc2ccccc2n1 [compound 444, 4-Fluoro-7-(4-fluorophenyl)-2-[2-(2-quinolyl)ethyl]isoindolin-1-one] |
| 200 to 500 | Cc1ccsc1-c1cccc2c1CN(CCc1ccc3ccccc3n1)C2=O [Example 351, 4-(3-Methyl-thiophen-2-yl)-2-(2-quinolin-2-yl-ethyl)-2,3-dihydro-isoindol-1-one] |
| 200 to 500 | O=C1c2c(cccc2-c2ccco2)CN1CCc1ccc2ccccc2n1 [Example 31, 7-Furan-2-yl-2-(2-quinolin-2-yl-ethyl)-2,3-dihydro-isoindol-1-one] |
| < 100 | O=C1c2c(cccc2-c2ccc(F)cc2)CN1CCc1ccc2ccccc2n1 [Example 22, 7-(4-Fluoro-phenyl)-2-(2-quinolin-2-yl-ethyl)-2,3-dihydro-isoindol-1-one] |
| < 100 | N#Cc1ccc(-c2cccc3c2C(=O)N(CCc2ccc4ccccc4n2)C3)s1 [Example 281, 5-[3-oxo-2-(2-quinolin-2-yl-ethyl)-2,3-dihydro-1H-isoindol-4-yl]-thiophene-2-carbonitrile] |
| 200 to 500 | O=C1c2c(cccc2-c2ccc3c(c2)CCO3)CN1CCc1ccc2ccccc2n1 [Example 56, 7-(2,3-Dihydro-benzofuran-5-yl)-2-(2-quinolin-2-yl-ethyl)-2,3-dihydro-isoindol-1-one] |
| < 100 | CCc1ccc(CCN2Cc3nccc(N4CCOCC4)c3C2=O)nc1 [compound 499, 6-[2-(5-Ethyl-2-pyridyl)ethyl]-4-morpholino-7H-pyrrolo[3,4-b]pyridin-5-one trifluoroacetate] |
| < 100 | O=C1c2c(cccc2-c2cn[nH]c2)CN1CCc1ccc2ccccc2n1 [Example 78, 7-(1H-Pyrazol-4-yl)-2-(2-quinolin-2-yl-ethyl)-2,3-dihydro-isoindol-1-one] |
| 100 to 200 | COc1cnccc1-c1ccnc2c1C(=O)N(CCc1ccc3ccccc3n1)C2 [compound 389, 4-(3-Methoxy-4-pyridyl)-6-[2-(2-quinolyl)ethyl]-7H-pyrrolo[3,4-b]pyridin-5-one] |
| < 100 | O=C1c2cccc(-c3ccoc3)c2CN1CCc1ccc2ccccc2n1 [Example 346, 4-Furan-3-yl-2-(2-quinolin-2-yl-ethyl)-2,3-dihydro-isoindol-1-one] |
| < 100 | O=C1c2c(cccc2N2CCC(F)(F)CC2)CN1CCc1ccc2ccccc2n1 [Example 143, 7-(4,4-Difluoro-piperidin-1-yl)-2-(2-quinolin-2-yl-ethyl)-2,3-dihydro-isoindol-1-one] |
| 100 to 200 | O=C1c2c(cccc2OCc2cccnc2)CN1CCc1ccc2ccccc2n1 [Example 127, 7-(Pyridin-3-ylmethoxy)-2-(2-quinolin-2-yl-ethyl)-2,3-dihydro-isoindol-1-one] |

| IC50 [nM] | Structure (SMILES) |
| --- | --- |
| 100 to 200 | O=C1c2c(cccc2-c2ccccc2)CN1CCc1ccc2ccccc2n1 [Example 21, 7-Phenyl-2-(2-quinolin-2-yl-ethyl)-2,3-dihydro-isoindol-1-one] |
| 100 to 200 | O=C1c2c(cccc2-c2ccccc2F)CN1CCc1ccc2ccccc2n1 [Example 29, 7-(2-Fluoro-phenyl)-2-(2-quinolin-2-yl-ethyl)-2,3-dihydro-isoindol-1-one] |
| < 100 | O=C1c2c(cccc2-c2ccncc2Cl)CN1CCc1ccc2ccccc2n1 [Example 170, 7-(3-Chloro-pyridin-4-yl)-2-(2-quinolin-2-yl-ethyl)-2,3-dihydro-isoindol-1-one trifluoroacetate] |
| 200 to 500 | Cn1c(CCN2Cc3cccc(N4CCOCC4)c3C2=O)nc2c(F)cccc21 [Example 307, 2-[2-(4-Fluoro-1-methyl-1H-benzoimidazol-2-yl)-ethyl]-7-morpholin-4-yl-2,3-dihydro-isoindol-1-one trifluoroacetate] |
| < 100 | Cc1cc(-c2cccc3c2C(=O)N(CCc2ccc4ccccc4n2)C3)ccn1 [Example 65, 7-(2-Methyl-pyridin-4-yl)-2-(2-quinolin-2-yl-ethyl)-2,3-dihydro-isoindol-1-one] |
| 100 to 200 | Cc1cc(-c2cccc3c2CN(CCc2ccc4ccccc4n2)C3=O)n(C)n1 [Example 348, 4-(2,5-Dimethyl-2H-pyrazol-3-yl)-2-(2-quinolin-2-yl-ethyl)-2,3-dihydro-isoindol-1-one] |
| < 100 | Cn1nccc1-c1ccc(F)c2c1C(=O)N(CCc1ccc3ccccc3n1)C2 [compound 439, 4-Fluoro-7-(2-methylpyrazol-3-yl)-2-[2-(2-quinolyl)ethyl]isoindolin-1-one] |
| 200 to 500 | CCCn1c(CCN2Cc3cccc(N4CCOCC4)c3C2=O)nc2ccccc21 [Example 305, 7-Morpholin-4-yl-2-[2-(1-propyl-1H-benzoimidazol-2-yl)-ethyl]-2,3-dihydro-isoindol-1-one trifluoroacetate] |
| < 100 | O=C1c2cccc(-c3ccncc3)c2CN1CCc1ccc2ccccc2n1 [Example 181, 4-Pyridin-4-yl-2-(2-quinolin-2-yl-ethyl)-2,3-dihydro-isoindol-1-one] |
| < 100 | O=C1c2c(-c3ccncc3)ccc(F)c2CN1CCc1ccc2ccccc2n1 [Example 16, 4-Fluoro-7-pyridin-4-yl-2-(2-quinolin-2-yl-ethyl)-2,3-dihydro-isoindol-1-one] |
| < 100 | O=C1c2cccc(-c3cccnc3)c2C(=O)N1CCc1ccc2ccccc2n1 [Example 271, 4-Pyridin-3-yl-2-(2-quinolin-2-yl-ethyl)-isoindole-1,3-dione] |
| < 100 | O=C1c2c(N3CCC(CF)C3)ccnc2CN1CCc1ccc2ccccc2n1 (stereo not drawn) [compound 435, 4-[3-(Fluoromethyl)pyrrolidin-1-yl]-6-[2-(2-quinolyl)ethyl]-7H-pyrrolo[3,4-b]pyridin-5-one] |
| < 100 | O=C1c2cccc(-c3cscn3)c2CN1CCc1ccc2ccccc2n1 [Example 355, 2-(2-Quinolin-2-yl-ethyl)-4-thiazol-4-yl-2,3-dihydro-isoindol-1-one] |
| < 100 | O=C1c2c(C3CCOC3)ccnc2CN1CCc1ccc2ccccc2n1 (stereo not drawn) [Example 309, 6-(2-Quinolin-2-yl-ethyl)-4-(tetrahydro-furan-3-yl)-6,7-dihydro-pyrrolo[3,4-b]pyridin-5-one] |
| < 100 | O=C1c2c(N3CCC(F)(F)CC3)ccnc2CN1CCc1nc2ccccc2s1 [compound 527, 6-[2-(1,3-Benzothiazol-2-yl)ethyl]-4-(4,4-difluoro-1-piperidyl)-7H-pyrrolo[3,4-b]pyridin-5-one trifluoroacetate] |
| < 100 | O=C1c2cccc(-c3cncnc3)c2CN1CCc1ccc2ccccc2n1 [Example 208, 4-Pyrimidin-5-yl-2-(2-quinolin-2-yl-ethyl)-2,3-dihydro-isoindol-1-one] |
| 100 to 200 | COc1cc(-c2cccc3c2CN(CCc2ccc4ccccc4n2)C3=O)ccn1 [Example 344, 4-(2-Methoxy-pyridin-4-yl)-2-(2-quinolin-2-yl-ethyl)-2,3-dihydro-isoindol-1-one] |
| < 100 | CSCOc1ccc(-c2ccncc2)c2c1CN(CCc1ccc3ccccc3n1)C2=O [Example 267, 4-Methylsulfanylmethoxy-7-pyridin-4-yl-2-(2-quinolin-2-yl-ethyl)-2,3-dihydro-isoindol-1-one] |
| < 100 | O=C1c2c(cccc2-c2ccncc2)CN1CCc1ccc2ccccc2n1 [Example 5, 7-Pyridin-4-yl-2-(2-quinolin-2-yl-ethyl)-2,3-dihydro-isoindol-1-one] |

From patent US9938269B2, “Inhibitor compounds of phosphodiesterase type 10A” (ABBVIE INC., priority 2011, dated 2018)
